Molecular target: T1, Pho1 (free form) (Ipomoea batatas, UniProt P27598)
T1 construct: native, purified from storage roots; 110-kDa band; 220-kDa homodimer
T1 sequence (P27598 44-955): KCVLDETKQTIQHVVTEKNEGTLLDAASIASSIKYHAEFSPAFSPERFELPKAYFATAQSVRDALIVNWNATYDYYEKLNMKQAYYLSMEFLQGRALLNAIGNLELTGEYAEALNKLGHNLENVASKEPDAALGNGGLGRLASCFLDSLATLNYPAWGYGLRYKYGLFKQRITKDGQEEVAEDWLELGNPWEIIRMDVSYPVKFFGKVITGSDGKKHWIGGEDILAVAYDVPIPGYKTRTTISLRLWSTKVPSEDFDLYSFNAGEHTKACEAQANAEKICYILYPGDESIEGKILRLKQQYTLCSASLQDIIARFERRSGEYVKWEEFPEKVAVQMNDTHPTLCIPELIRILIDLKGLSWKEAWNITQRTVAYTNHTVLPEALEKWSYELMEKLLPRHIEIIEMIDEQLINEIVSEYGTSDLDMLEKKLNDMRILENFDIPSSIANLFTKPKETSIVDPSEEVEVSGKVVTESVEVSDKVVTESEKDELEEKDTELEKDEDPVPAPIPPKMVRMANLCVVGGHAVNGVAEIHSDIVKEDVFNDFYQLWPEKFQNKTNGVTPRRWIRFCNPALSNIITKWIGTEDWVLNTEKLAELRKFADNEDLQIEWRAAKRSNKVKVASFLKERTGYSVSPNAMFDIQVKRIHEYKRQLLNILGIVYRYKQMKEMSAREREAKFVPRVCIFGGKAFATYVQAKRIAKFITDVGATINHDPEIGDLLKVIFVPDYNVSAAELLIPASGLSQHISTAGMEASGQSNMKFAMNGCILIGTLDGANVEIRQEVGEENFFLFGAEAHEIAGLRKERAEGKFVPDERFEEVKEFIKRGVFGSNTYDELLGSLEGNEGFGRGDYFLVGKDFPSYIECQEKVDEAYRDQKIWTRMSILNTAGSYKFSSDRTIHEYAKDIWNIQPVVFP
Assay: Glc-1-P production, coupled phosphoglucomutase / Glc-6-P dehydrogenase (NADPH)
Format: biochemical
Details: 0.5 mM substrate, 0.5 mM inorganic phosphate, 50 mM sodium acetate pH 6.0, 37°C, 1 h; phosphorolysis

Row | SMILES | Glc-1-P production, coupled phosphoglucomutase / Glc-6-P dehydrogenase (NADPH)
1 | OC[C@H]1O[C@H](O[C@H]2[C@H](O)[C@@H](O)[C@@H](O[C@H]3[C@H](O)[C@@H](O)[C@@H](O[C@H]4[C@H](O)[C@@H](O)[C@@H](O[C@H]5[C@H](O)[C@@H](O)C(O)O[C@@H]5CO)O[C@@H]4CO)O[C@@H]3CO)O[C@@H]2CO)[C@H](O)[C@@H](O)[C@@H]1O (some centres unmarked) [G5, maltopentaose] | displayed high catalytic activity with G5, G6, G7, or dextrin to produce Glc-1-P
2 | OC[C@H]1O[C@H](O[C@H]2[C@H](O)[C@@H](O)[C@@H](O[C@H]3[C@H](O)[C@@H](O)[C@@H](O[C@H]4[C@H](O)[C@@H](O)[C@@H](O[C@H]5[C@H](O)[C@@H](O)[C@@H](O[C@H]6[C@H](O)[C@@H](O)C(O)O[C@@H]6CO)O[C@@H]5CO)O[C@@H]4CO)O[C@@H]3CO)O[C@@H]2CO)[C@H](O)[C@@H](O)[C@@H]1O (some centres unmarked) [G6, maltohexaose] | displayed high catalytic activity with G5, G6, G7, or dextrin to produce Glc-1-P
